Experimental data: patent US20210023065A1, “AMPHIPHILIC THIOL COMPOUNDS AND USES THEREOF” (THE REGENTS OF THE UNIVERSITY OF CALIFORNIA, priority 2018, published 2021)

What was measured:
Assay type in all cases: cell-based
endogenous HRas = target: T1, endogenous HRas (Homo sapiens, UniProt P01112); assay: Acyl resin-assisted capture detection of HRas palmitoylation in HeLa cells; conditions: for depalmitoylation of HRas: HeLa cells, 20 min, 1 at 1.25 μmol/10^7 cells, same experiments with TCEP alone or compound 2
T1 construct: endogenous in cells; host or cells: HeLa
T1 sequence (P01112 whole entry): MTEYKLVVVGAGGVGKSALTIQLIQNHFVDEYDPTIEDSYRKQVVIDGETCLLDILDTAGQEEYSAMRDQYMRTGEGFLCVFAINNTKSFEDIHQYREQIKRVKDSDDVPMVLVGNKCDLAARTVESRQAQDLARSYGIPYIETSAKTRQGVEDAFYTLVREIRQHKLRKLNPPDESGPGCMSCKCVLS
Method: HeLa cells were grown to confluency in 10 cm plates. Stock solutions of compounds were prepared in DMSO as before and diluted to the final indicated concentration in 5.5 mL of OptiMEM media before adding to cells. Cells were incubated at 37° C. for 20 min and then media removed and 3 mL of HBSS added to each plate. Cells were detached using a cell scraper, pelleted by centrifugation at 1,000 rcf for 5 min and the pellet processed using a CAPTUREome S-Palmitoylated Protein Kit (Badrilla, UK) according to the manufacturer's protocol. Samples were resolved by electrophoresis using 4-20% SDS-polyacrylamide gels (Bio-Rad) under denaturing and reducing conditions. Proteins were then electrotransferred to a PVDF membrane (Bio-Rad). The membrane was blocked with 3% BSA and then subjected to immunoblot analysis using Anti-GTPase HRAS antibody (ab97488) (Abcam), Calnexin Antibody (2433S) (Cell Signaling Technology), Gα(i) Antibody (5290S) (Cell Signaling Technology), SNAP25 Antibody (5308S) (Cell Signaling Technology), Flotillin-2 Antibody (3436S) (Cell Signaling Technology), CD44 Antibody (3570S) (Cell Signaling Technology), Lyric/Metadherin Antibody (14065S) (Cell Signaling Technology), Flotillin-1 Antibody (3253S) (Cell Signaling Technology) and secondary goat anti-rabbit IgG-HRP (sc-2030) (Santa Cruz Biotechnology) or goat anti-mouse IgG HRP (ThermoFisher). Chemiluminescent detection was performed by using SuperSignal West Pico PLUS chemiluminescent substrate (ThermoFisher) according to the manufacturer's instructions.
(§1) Assays were performed in 3 biological replicates. Each replicate involved the analysis of 4 to 5 conditions side-by-side. Western blots were analyzed using ImageJ^1. The intensity of the protein band in each cleaved bound fraction (palmitoylated protein fraction) was normalized to the intensity of the corresponding input fraction (total protein fraction). The values within individual S 4 replicates were normalized to the control or vehicle condition and reported as means±SD. An unpaired t test was performed to determine the significance between means.

GAP43 = target: T2, GAP43 (Homo sapiens, UniProt P17677); assay: Acyl resin-assisted capture detection of GAP43 palmitoylation in INCL lymphoblasts; conditions: 0.05 μmol/10^7 cells, 24 h
T2 construct: Western blot detection of endogenous GAP43 in acyl resin-assisted capture fractions; host or cells: INCL human lymphoblasts
T2 sequence (P17677 1-238): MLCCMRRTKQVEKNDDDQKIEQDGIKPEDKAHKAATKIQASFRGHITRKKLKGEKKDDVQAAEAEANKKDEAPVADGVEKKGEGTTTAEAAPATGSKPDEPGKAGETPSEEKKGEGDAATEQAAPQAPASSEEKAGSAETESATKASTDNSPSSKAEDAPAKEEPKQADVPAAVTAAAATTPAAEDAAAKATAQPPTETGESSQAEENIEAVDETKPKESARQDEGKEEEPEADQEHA
Method: INCL Lymphoblasts were adjusted to 1,000,000 cells/mL in 20 mL of OptiMem Media. Stock solutions of compounds were prepared in DMSO as before and diluted to the indicated final concentration in the cell suspension. […] Cells were pelleted by centrifugation at 1,000 rcf for 5 min and the pellet processed using a CAPTUREome S-Palmitoylated Protein Kit (Badrilla, UK) according to the manufacturer's protocol. Samples were resolved by electrophoresis using 4-20% SDS-polyacrylamide gels (Bio-Rad) under denaturing and reducing conditions. Proteins were then electrotransferred to a PVDF membrane (Bio-Rad). The membrane was blocked with 3% BSA and then subjected to immunoblot analysis using GAP-43 (B-5) Antibody (sc-17790) (Santa Cruz Biotechnology) and secondary antibody goat anti-mouse IgG HRP (ThermoFisher). Chemiluminescent detection was performed by using SuperSignal West Pico PLUS chemiluminescent substrate (ThermoFisher) according to the manufacturer's instructions.
as §1

EGFP-HRas = target: T3, EGFP-HRas (Homo sapiens, UniProt P01112); assay: Live-cell imaging of EGFP-HRas localization in HeLa cells; conditions: HeLa cells, 1.25 μmol/10^7 cells, 20 min
T3 construct: host or cells: HeLa
T3 sequence (P01112 1-186 limits assumed): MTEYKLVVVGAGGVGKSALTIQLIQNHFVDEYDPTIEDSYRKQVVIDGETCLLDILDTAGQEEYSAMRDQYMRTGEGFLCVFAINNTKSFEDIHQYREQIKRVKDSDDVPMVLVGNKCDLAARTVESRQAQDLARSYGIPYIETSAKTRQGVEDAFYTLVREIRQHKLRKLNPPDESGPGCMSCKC
Method: Imaging was performed on an Axio Observer Z1 inverted microscope (Carl Zeiss Microscopy Gmb, Germany) with Yokogawa CSU-X1 spinning disk confocal unit using a 63×, 1.4 NA oil immersion or 20×, 0.8 NA objective to an ORCA-Flash4.0 V2 Digital CMOS camera (Hamamatsu, Japan). For live cell imaging, an incubation chamber with temperature and CO2 controllers (World Precision Instruments) was utilized. Fluorophores were excited with s diode laser (488 nm; 30 mW). Images were acquired using Zen Blue software (Carl Zeiss) and processed using Image J.^1
HeLa cells were plated at 40,000 cells/well in an 8-well Lab-Tek chamber slide (ThermoFisher) and allowed to adhere overnight. Cells were transfected with mEGFP-HRas or mEGFP-KRas4b using Lipofectamine 2000 (ThermoFisher) according to the manufacturer's protocol. 50 mM stocks of compounds 1 and 2 were prepared by dissolving the solid compound in DMSO containing 100 mM tris(2-S 3 carboxyethyl)phosphine hydrochloride (TCEP) as a preservative. From these stocks, a solution of 200 μM [1 or 2] (with 400 μM TCEP), or 400 μM TCEP was prepared in OptiMEM media. Before imaging, cells were exchanged into OptiMEM media. The diluted solutions were added to the indicated final concentration within individual wells of the chamber slide and cells imaged while maintaining 37° C., 5% CO2 in the incubation chamber. Images were acquired in 6 different locations across a minimum of 2 independent experiments. […] An unpaired t test was performed to determine the significance of the means before and after treatment.

Row | depalmitoylation of HRas by PB alone (endogenous HRas; HeLa cells treated with PB, without 1) | Compound | level of GAP43 palmitoylation (GAP43) | EGFP-HRas localization at the plasma membrane (fluorescence) (EGFP-HRas) | depalmitoylation of HRas (endogenous HRas)
1 | no significant depalmitoylation | CCCCCCCCCC[C@@H]1C(=O)O[C@H]1CCc1ccc(OC)c(OC)c1 [PB, palmostatin B, reference compound] |  |  | 
2 |  | CCCCCCCCNC(=O)[C@@H](N)CO [compound 2, H2N-L-Ser-Oct, reference compound] | did not result in a significant change | no change in fluorescence localization | no significant depalmitoylation
3 |  | Cl.O=C(O)CCP(CCC(=O)O)CCC(=O)O [TCEP, tris(2-carboxyethyl)phosphine hydrochloride, reference compound] | did not result in a significant change | no change in fluorescence localization | no significant depalmitoylation
